Results reported in patent US20180340156A1, “PURIFICATION OF A SOLUBLE AND ACTIVE FORM OF ASPARTATE N-[…]” (The University of Toledo, priority 2015, published 2018).
“Also recorded” adds a separate entry of the source. Blank lines part the entries; values can stand above or below the molecule they belong to.

What was measured:
MBP-ANAT fusion enzyme [1] = target: T1, MBP-ANAT fusion enzyme (Homo sapiens, UniProt Q8N9F0); test: DTNB-based ANAT enzyme activity assay, substrate kinetics; assay type: biochemical; conditions: for catalytic efficiency as alternative substrate relative to physiological substrate: alternative acetyl group acceptor vs L-aspartate; for alternative substrate activity: screen of amino acid library of 160 compounds
T1 construct: the full length ANAT enzyme has been expressed and purified in a fusion construct with MBP; made in house; host or cells: E. coli NiCo21(DE3)
T1 sequence (Q8N9F0 1-302): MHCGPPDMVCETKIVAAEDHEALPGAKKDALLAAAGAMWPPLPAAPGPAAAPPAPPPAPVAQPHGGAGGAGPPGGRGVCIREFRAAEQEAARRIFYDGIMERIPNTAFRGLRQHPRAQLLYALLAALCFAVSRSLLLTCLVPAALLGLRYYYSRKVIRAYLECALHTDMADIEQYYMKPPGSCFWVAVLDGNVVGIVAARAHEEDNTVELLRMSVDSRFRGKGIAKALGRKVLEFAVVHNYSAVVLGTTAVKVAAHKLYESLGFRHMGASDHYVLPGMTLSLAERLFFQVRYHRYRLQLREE
Experimental: (§1) The ANAT activity was measured by an established DTNB-based assay in which the coenzyme A product participates in a thiol exchange reaction with DTNB. This assay is illustrated in FIGS. 4A-4B. The resulting TNB^2− ion was monitored at 412 nm (c=14.15 mM^−1cm^−1) using a SpectraMax 190 spectrophotometer plate reader (Molecular Devices, CA).
(§2) The DTNB-based assay was used to measure the kinetic parameters for the physiological substrates and some alternative ANAT substrates.
The kinetic parameters for the physiological substrates of ANAT were determined using the assay described above by varying the concentrations of both substrates and fitting the data to the equation for a sequential kinetic mechanism (eq. 1). […] A screen for alternative substrates was conducted using a customized amino acid library containing a total of 160 compounds.

[2] = target: ANAT fusion enzyme with GST (Homo sapiens, UniProt Q8N9F0); conditions: L-aspartate as substrate
Experimental: as §1, §2

membrane-bound ANAT = target: T2, membrane-bound ANAT (Homo sapiens, UniProt Q8N9F0); test: Detergent solubilization/extraction of native ANAT from membrane fraction
T2 construct: polyhistidine tag (C); made in house; host or cells: E. coli BL21(DE3), membrane fraction
T2 sequence (Q8N9F0 1-302): T1 sequence (Q8N9F0 1-302)
Experimental: The human nat8l gene was cloned into the pETDEST42 plasmid using the Gateway cloning technology (Life Technologies). This plasmid was used to transform E. coli BL21(DE3) cells for protein production. The cells were grown at 37° C. to an A600 of 0.6-0.8 in Luria-Bertani (LB) medium containing 100 μg/mL ampicillin, and gene expression was then induced with 1 mM isopropyl […] (IPTG) at 28° C. for 5 hours. The cell pellet was resuspended in buffer A [50 mM HEPES, 500 mM NaCl and 10% glycerol (pH 7.4)] and lysed by sonication on ice for 8 min with 30 s pulse on and 2 min pulse off cycle. The cell lysate was centrifuged at 11,000 rpm for 30 minutes to pellet cell debris and unlysed cells. The membrane fraction was collected by high-speed centrifugation of the supernatant at 40,000 rpm for 1 h. Solubilization trials of ANAT from the membrane fraction were conducted with a variety of different detergents that include ionic, non-ionic, and zwitterionic detergents. Twenty microliter aliquots of the resuspended membrane fraction were mixed with different amounts of stock detergent solutions each prepared at 10 times their critical micelle concentration (CMC), leading to a final concentration of 1.5×CMC and […]. These solutions were incubated at room temperature for 1 h or at 4° C. overnight in a rocking platform.

MBP-ANAT fusion enzyme [3] = target: T1, MBP-ANAT fusion enzyme; test: Effect of detergents on ANAT activity (DTNB-based assay, saturating substrates); assay type: biochemical; conditions: incubation with detergent at CMC
Experimental: This assay is illustrated in FIGS. 4A-4B.
(§3) The effect of detergent properties on ANAT activity was tested using a variety of different detergents, each at their critical micelle concentration (CMC) levels. All measurements were conducted at least in duplicate by using the DTNB-based assay at saturating substrates levels. The effect of an organic solvent on ANAT activity was also evaluated by varying the DMSO concentration in the assay from 0 to 50%. To test the stability of the purified MBP-ANAT-his construct, the enzyme was stored at 4° C. for several days and activity was monitored daily. To test for the optimal long term storage conditions, the enzyme activity was followed through multiple freeze-thaw cycles between −80° C. and room temperature.

[4] = substrate: CC(=O)SCCNC(=O)CCNC(=O)[C@H](O)C(C)(C)COP(=O)(O)OP(=O)(O)OC[C@H]1O[C@@H](n2cnc3c(N)ncnc32)[C@H](O)[C@@H]1OP(=O)(O)O; test: purified protein, by the assay type; conditions: other: acetyl-CoA as substrate, MBP-ANAT fusion, sequential mechanism fit, pH 7.4
[5] = Enzyme stability on storage at 4° C. and freeze-thaw cycles; assay type: physicochemical; conditions: stored at 4° C. for several days to one week, assayed daily
Experimental: as §3

Km (MBP-ANAT fusion enzyme [1]; L-aspartate as substrate, MBP-ANAT fusion, sequential mechanism fit, pH 7.4): 160 µM
Km [2]: 100 µM
Molecule: N[C@@H](CC(=O)O)C(=O)O [L-aspartate]

extraction efficiency of membrane-bound ANAT (membrane-bound ANAT; 8.7 CMC): effective
Molecule: CCCCCCCCCCCCO[C@@H]1O[C@H](CO)[C@@H](O[C@H]2O[C@H](CO)[C@@H](O)[C@H](O)[C@H]2O)[C@H](O)[C@H]1O [DDM]

loss of catalytic activity (MBP-ANAT fusion enzyme [3]): significant loss of activity
Molecule: CCCCCCCCO[C@@H]1O[C@H](CO)[C@@H](O)[C@H](O)[C@H]1O [octylglucoside]

extraction efficiency of membrane-bound ANAT (membrane-bound ANAT; non-ionic detergents, 1.5 CMC): highest extraction efficiency
Molecule: CCCCCCCCCCCCOCCOCCOCCOCCOCCOCCOCCOCCO [C12E8]

loss of catalytic activity (MBP-ANAT fusion enzyme [3]): significant loss of activity
extraction efficiency of membrane-bound ANAT (membrane-bound ANAT; 8.7 CMC): effective
Molecule: OC[C@H]1O[C@H](O[C@H]2[C@H](O)[C@@H](O)[C@H](OCCCCCC3CCCCC3)O[C@@H]2CO)[C@H](O)[C@@H](O)[C@@H]1O [Cymal 5]

catalytic efficiency as alternative substrate relative to physiological substrate (MBP-ANAT fusion enzyme [1]): less than 10%
Molecule: NC(C(=O)O)C(N)C(=O)O (stereo not drawn) [2,3-diaminosuccinate]

More lines, now with the values behind:

Molecule: CCCCCCCCCCCCOS(=O)(=O)[O-].[Na+] [SDS]
loss of catalytic activity (MBP-ANAT fusion enzyme [3]): nearly complete loss of catalytic activity

Molecule: CCCCCCCCCCCC[N+](C)(C)[O-] [LDAO]
loss of catalytic activity (MBP-ANAT fusion enzyme [3]): nearly complete loss of catalytic activity

Molecule: N[C@@H](CCC(=O)O)C(=O)O [L-glutamate]
catalytic efficiency as alternative substrate relative to physiological substrate (MBP-ANAT fusion enzyme [1]): less than 1%
alternative substrate activity (MBP-ANAT fusion enzyme [1]): profound loss of activity

Molecule: CC(C(=O)O)[C@H](N)C(=O)O (stereo partly drawn) [β-methylaspartate]
alternative substrate activity (MBP-ANAT fusion enzyme [1]): best of these few alternative substrates; also recorded: profound loss of activity

B1: MBP-ANAT fusion enzyme (Homo sapiens) (protein)
chain: T1 sequence (Q8N9F0 1-302)
Km [4]: 3.1 µM

B2: native enzyme: human aspartate N-acetyltransferase without the MBP fusion domain (protein, UniProt Q8N9F0 1-302, looked up)
N-acetylaspartate synthetase: T1 sequence (Q8N9F0 1-302)
loss of activity on storage [5]: substantial loss of catalytic activity
